Experiments:
Format in all cases: in vivo
Centauria cyanus = experiment: Greenhouse trial, post-emergence: CENCY; conditions: for % activity 28 DAT: CENCY, post-emergence (Tables 7-9)
Method: (§1) The test plants have been seeded, separately for each species, in plastic containers in sandy loamy soil containing 5% organic matter.
(§2) For the post emergence treatment, the plants were first grown to the 2 leaf station (GS 12). Here, the herbicidal compositions were suspended or emulsified in water as distribution medium and sprayed using finely distributing nozzels.
(§3) The plants have been cultivated due to there individual requirements at 10-25° C. and 20-35° C. The plants were irrigated due to there necessity. […]
(§4) The evaluation for the damage on undesired weeds caused by the chemical compositions was carried out using a scale from 0 to 100%, compared to the untreated control plants. Here, 0 means no damage and 100 means complete destruction of the plants.
(§5) Calculation of expected activity of binary mixtures was done by using the Colby-Formula according to Example 1.

Sinapis alba = experiment: Field trial Example 1, successive application: damage on SINAL; conditions: DAT 25/DALT 10
Text: (§6) Aminiopyralid was used as commercial aquaeous solution having an active ingredient concentration of 240 g/l (Milestone™). Metazachlor was used as a commercial suspension concentrate having an active ingredient concentration of 500 g/l (Butisan S®).
(§7) The performance of aminopyralid applied as an alone treatment at 15, 30 and 50 g a.i./ha applied as an early post emergence treatment and an post emergence treatment in comparison to two different applications including metazachlor at 500 g a.i./ha as an early post emergence application in succession of aminopyralid as a post emergence application at 15 and 30 g a.i./ha was assessed in an oilseed rape field trials.
(§8) The early post emergence treatment was applied by means of fine distributed nozzles at the growth stage (GS) of the crop BBCH 11-12.
(§9) The post emergence treatment was applied by means of fine distributed nozzles at the growth stage (GS) of the crop BBCH 13-14.
(§10) The test period extended over the autumn and spring season (205 days).
(§11) In the following experiments, the herbicidal activity for the individual herbicide compounds (solo application) and of the herbicidal succession was assessed 4 times:
as §4

Matricaria inodora = experiment: Field trial Example 2, combined application: MATIN; conditions: Aminopyralid 7.5 g ai/ha solo
Method: as §6, §4
(§12) The value E, which is to be expected if the activity of the individual compounds is just additive, was calculated using the method of S. R. Colby (1967) “Calculating synergistic and antagonistic responses of herbicide combinations”, Weeds 15, p. 22 ff.
(§13) The performance of aminopyralid, applied as an alone treatment at […] and 15 g ai/ha, and the performance of metazachlor, applied as an alone treatment at 375 and 500 g ai/ha, as well as the mixtures of the both compounds have been assessed in winter oilseed rape field trials. The trials have been conducted in Germany at two locations.
(§14) Post emergence treatment was applied by means of fine distributed nozzels at the growth stage (GS/BBCH 11/12).

oilseed rape = experiment: Field trial Example 1, successive application: phytotoxicity (PHYTOX) on oilseed rape crop; conditions: for PHYTOX (damage on the oilseed rape crop): DAT 205/DALT 190
Text: as §6, §7, §8, §9, §10, §11
The evaluation for the damage on the oilseed rape crop, the plant injury or phytotoxicity (PHYTOX) caused by the chemical compositions was carried out using a scale from 0 to 100%, compared to the untreated control plants. Here, 0 means no damage and 100 means high injury of the plants.

Capsella bursa-pasturis = experiment: Greenhouse trial, post-emergence: CAPBP; conditions: aminopyralid 10 g ai/ha solo, post-emergence (Table 10)
Method: as §1, §2, §3, §4, §5

Sissimbrium officinale = experiment: Field trial Example 1, successive application: damage on SSYOF
Text: as §6, §7, §8, §9, §10, §11, §4

Centaurea cyanus = experiment: Field trial Example 2, combined application: CENCY; conditions: Aminopyralid 7.5 g ai/ha solo, 78 DAT
Method: as §6, §4, §12, §13, §14

Stellaria media = experiment: Greenhouse trial, post-emergence: STEME; conditions: post-emergence (Tables 7-9)
Method: as §1, §2, §3, §4, §5

Papaver rhoeas = experiment: Field trial Example 1, successive application: damage on PAPRH
Text: as §6, §7, §8, §9, §10, §11, §4

[1] = post-emergence, 672 h, read-out: % activity 28 DAT, CENCY
[2] = 15 g ai/ha, treatment A early post emergence, DAT 25/DALT 10
[3] = 15 g ai/ha, treatment A early post emergence, DAT 65/DALT 50
[4] = 15 g ai/ha, treatment A early post emergence, DAT 176/DALT 161
[5] = 15 g ai/ha, treatment B post emergence, DAT 25/DALT 10
[6] = 15 g ai/ha, treatment B post emergence, DAT 65/DALT 50
[7] = 15 g ai/ha, treatment B post emergence, DAT 176/DALT 161
[8] = 30 g ai/ha, treatment A early post emergence, DAT 25/DALT 10
[9] = 30 g ai/ha, treatment A early post emergence, DAT 65/DALT 50
[10] = 30 g ai/ha, treatment A early post emergence, DAT 176/DALT 161
[11] = 30 g ai/ha, treatment B post emergence, DAT 25/DALT 10
[12] = 30 g ai/ha, treatment B post emergence, DAT 65/DALT 50
[13] = 30 g ai/ha, treatment B post emergence, DAT 176/DALT 161
[14] = 50 g ai/ha, treatment A early post emergence, DAT 25/DALT 10
[15] = 50 g ai/ha, treatment A early post emergence, DAT 65/DALT 50
[16] = 50 g ai/ha, treatment A early post emergence, DAT 176/DALT 161
[17] = 50 g ai/ha, treatment B post emergence, DAT 25/DALT 10
[18] = 50 g ai/ha, treatment B post emergence, DAT 65/DALT 50
[19] = 50 g ai/ha, treatment B post emergence, DAT 176/DALT 161
[20] = aminopyralid 15 g ai/ha, treatment A, DAT 205/DALT 190
[21] = aminopyralid 15 g ai/ha, treatment B, DAT 205/DALT 190
[22] = aminopyralid 30 g ai/ha, treatment A, DAT 205/DALT 190
[23] = aminopyralid 30 g ai/ha, treatment B, DAT 205/DALT 190
[24] = aminopyralid 50 g ai/ha, treatment A, DAT 205/DALT 190
[25] = aminopyralid 50 g ai/ha, treatment B, DAT 205/DALT 190

Q: Which results are given for `Nc1cc(Cl)nc(C(=O)O)c1Cl` [aminopyralid, 4-amino-3,6-dichloropyridine-2-carboxylic acid]?
A: % activity 28 DAT (Centauria cyanus; aminopyralid 5 g ai/ha solo): 60%; % activity 28 DAT (Centauria cyanus; aminopyralid 10 g ai/ha solo): 65%; inhibition at 5 g/ha (Centauria cyanus; [1]): 70%; inhibition at 10 g/ha (Centauria cyanus; [1]): 85%; damage on SINAL (Sinapis alba; 15 g ai/ha, treatment A early post emergence): 13%; damage on SINAL (Sinapis alba; 15 g ai/ha, treatment B post emergence): 0%; damage on SINAL (Sinapis alba; 30 g ai/ha, treatment A early post emergence): 50%; damage on SINAL (Sinapis alba; 30 g ai/ha, treatment B post emergence): 0%; damage on SINAL (Sinapis alba; 50 g ai/ha, treatment A early post emergence): 67%; damage on SINAL (Sinapis alba; 50 g ai/ha, treatment B post emergence): 0%; % activity (Matricaria inodora; 28 DAT): 78%; % activity (Matricaria inodora; 29 DAT): 87%; PHYTOX (damage on oilseed rape crop) (oilseed rape; [2]): 11%; PHYTOX (damage on oilseed rape crop) (oilseed rape; [3]): 3%; PHYTOX (damage on oilseed rape crop) (oilseed rape; [4]): 2%; PHYTOX (damage on oilseed rape crop) (oilseed rape; [5]): 0%; PHYTOX (damage on oilseed rape crop) (oilseed rape; [6]): 0%; PHYTOX (damage on oilseed rape crop) (oilseed rape; [7]): 0%; PHYTOX (damage on oilseed rape crop) (oilseed rape; [8]): 27%; PHYTOX (damage on oilseed rape crop) (oilseed rape; [9]): 30%; PHYTOX (damage on oilseed rape crop) (oilseed rape; [10]): 0%; PHYTOX (damage on oilseed rape crop) (oilseed rape; [11]): 0%; PHYTOX (damage on oilseed rape crop) (oilseed rape; [12]): 0%; PHYTOX (damage on oilseed rape crop) (oilseed rape; [13]): 0%; PHYTOX (damage on oilseed rape crop) (oilseed rape; [14]): 40%; PHYTOX (damage on oilseed rape crop) (oilseed rape; [15]): 50%; PHYTOX (damage on oilseed rape crop) (oilseed rape; [16]): 0%; PHYTOX (damage on oilseed rape crop) (oilseed rape; [17]): 7%; PHYTOX (damage on oilseed rape crop) (oilseed rape; [18]): 0%; PHYTOX (damage on oilseed rape crop) (oilseed rape; [19]): 0%; PHYTOX (damage on the oilseed rape crop) (oilseed rape; aminopyralid 15 g ai/ha, treatment A): 0%; PHYTOX (damage on the oilseed rape crop) (oilseed rape; aminopyralid 15 g ai/ha, treatment B): 0%; PHYTOX (damage on the oilseed rape crop) (oilseed rape; aminopyralid 30 g ai/ha, treatment A): 0%; PHYTOX (damage on the oilseed rape crop) (oilseed rape; aminopyralid 30 g ai/ha, treatment B): 0%; PHYTOX (damage on the oilseed rape crop) (oilseed rape; aminopyralid 50 g ai/ha, treatment A): 0%; PHYTOX (damage on the oilseed rape crop) (oilseed rape; aminopyralid 50 g ai/ha, treatment B): 0%; % activity 28 DAT (Capsella bursa-pasturis): 25%; damage on SSYOF (Sissimbrium officinale; [2]): 33%; damage on SSYOF (Sissimbrium officinale; [3]): 0%; damage on SSYOF (Sissimbrium officinale; [4]): 0%; damage on SSYOF (Sissimbrium officinale; [5]): 53%; damage on SSYOF (Sissimbrium officinale; [6]): 0%; damage on SSYOF (Sissimbrium officinale; [7]): 0%; damage on SSYOF (Sissimbrium officinale; [8]): 71%; damage on SSYOF (Sissimbrium officinale; [9]): 25%; damage on SSYOF (Sissimbrium officinale; [10]): 25%; damage on SSYOF (Sissimbrium officinale; [11]): 60%; damage on SSYOF (Sissimbrium officinale; [12]): 27%; damage on SSYOF (Sissimbrium officinale; [13]): 27%; damage on SSYOF (Sissimbrium officinale; [14]): 86%; damage on SSYOF (Sissimbrium officinale; [15]): 50%; damage on SSYOF (Sissimbrium officinale; [16]): 50%; damage on SSYOF (Sissimbrium officinale; [17]): 72%; damage on SSYOF (Sissimbrium officinale; [18]): 32%; damage on SSYOF (Sissimbrium officinale; [19]): 32%; damage on SSYOF (Sissimbrium officinale; [20]): 0%; damage on SSYOF (Sissimbrium officinale; [21]): 0%; damage on SSYOF (Sissimbrium officinale; [22]): 23%; damage on SSYOF (Sissimbrium officinale; [23]): 50%; damage on SSYOF (Sissimbrium officinale; [24]): 62%; damage on SSYOF (Sissimbrium officinale; [25]): 52%; % activity (Centaurea cyanus): 98%; % activity 28 DAT (Stellaria media; aminopyralid 5 g ai/ha solo): 35%; % activity 28 DAT (Stellaria media; aminopyralid 10 g ai/ha solo): 65%; damage on PAPRH (Papaver rhoeas; [2]): 93%; damage on PAPRH (Papaver rhoeas; [3]): 93%; damage on PAPRH (Papaver rhoeas; [4]): 96%; damage on PAPRH (Papaver rhoeas; [5]): 72%; damage on PAPRH (Papaver rhoeas; [6]): 75%; damage on PAPRH (Papaver rhoeas; [7]): 96%; damage on PAPRH (Papaver rhoeas; [8]): 98%; damage on PAPRH (Papaver rhoeas; [9]): 95%; damage on PAPRH (Papaver rhoeas; [10]): 99%; damage on PAPRH (Papaver rhoeas; [11]): 72%; damage on PAPRH (Papaver rhoeas; [12]): 80%; damage on PAPRH (Papaver rhoeas; [13]): 96%; damage on PAPRH (Papaver rhoeas; [14]): 100%; damage on PAPRH (Papaver rhoeas; [15]): 100%; damage on PAPRH (Papaver rhoeas; [16]): 100%; damage on PAPRH (Papaver rhoeas; [17]): 80%; damage on PAPRH (Papaver rhoeas; [18]): 85%; damage on PAPRH (Papaver rhoeas; [19]): 97%; damage on PAPRH (Papaver rhoeas; [20]): 97%; damage on PAPRH (Papaver rhoeas; [21]): 97%; damage on PAPRH (Papaver rhoeas; [22]): 98%; damage on PAPRH (Papaver rhoeas; [23]): 100%; damage on PAPRH (Papaver rhoeas; [24]): 100%; damage on PAPRH (Papaver rhoeas; [25]): 98%

— patent US20110092367A1, “Herbicidal Compositions Comprising 4-amino-3,6-dichloropyridine-2-carboxylic Acid” (BASF SE, priority 2008, published 2011)
